“And” between values parts separate entries of the source, which are not always exact repeats. Identical values can stand only once.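 Method: 48-hour compound exposure of cells in 96-well plates, five concentrations, linear interpolation of endpoints. The concentration for 50% growth inhibition is given as GI50. The concentration for full growth arrest is given as TGI.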
Columns and labels:
Assay in all cases: DTP human tumour cell line panel, 48 h
786-0 renal = system: 786-0 renal
BT-549 breast = system: BT-549 breast
HCT-116 colon = system: HCT-116 colon
HOP-92 NSCLC = system: HOP-92 NSCLC
HT29 colon = system: HT29 colon
SK-MEL-5 melanoma = system: SK-MEL-5 melanoma
SW-620 colon = system: SW-620 colon
U251 CNS = system: U251 CNS
UACC-257 melanoma = system: UACC-257 melanoma
T-47D breast = system: T-47D breast

| Structure (SMILES) | GI50 (786-0 renal) | TGI (786-0 renal) | GI50 (BT-549 breast) [µM] | TGI (BT-549 breast) [µM] | GI50 (HCT-116 colon) | TGI (HCT-116 colon) | GI50 (HOP-92 NSCLC) | TGI (HOP-92 NSCLC) | GI50 (HT29 colon) | TGI (HT29 colon) | GI50 (SK-MEL-5 melanoma) | TGI (SK-MEL-5 melanoma) | GI50 (SW-620 colon) | TGI (SW-620 colon) | GI50 (U251 CNS) | TGI (U251 CNS) | GI50 (UACC-257 melanoma) | TGI (UACC-257 melanoma) | TGI (T-47D breast) | GI50 (T-47D breast) |
| --- | --- | --- | --- | --- | --- | --- | --- | --- | --- | --- | --- | --- | --- | --- | --- | --- | --- | --- | --- | --- |
| N#CC1=C(/N=C/c2ccccc2)Oc2c(ccc3ccccc23)C1c1ccccc1 (stereo unspecified) | 0.546 µM | > 100 µM | 0.951 | > 24.5 | 0.427 µM | > 47.8 µM | 0.299 µM | > 23.6 µM | 0.37 µM | > 100 µM | 0.378 µM | 2.5 µM | 0.405 µM | > 100 µM | 0.527 µM | > 100 µM | > 100 µM | > 100 µM |  |  |
| C[CH2][Sn]([CH2]C)([O]C(=O)c1ccccc1OC)[O][Sn]([CH2]C)([CH2]C)[O]C(=O)c1ccccc1OC | > 100 µM | > 100 µM |  |  | > 100 µM | > 100 µM | 89.4 µM | > 100 µM | > 100 µM | > 100 µM | > 100 µM | > 100 µM | 44.8 µM | > 100 µM | > 100 µM | > 100 µM | > 100 µM | > 100 µM |  |  |
| O=C(O)CCC(=O)c1ccc2sc3ccccc3c2c1 |  | > 100 µM |  | > 100 |  | > 100 µM |  |  |  | > 100 µM |  | > 100 µM |  | > 100 µM |  | > 100 µM |  | > 100 µM | > 100 µM |  |
| CC1(C)CC(=O)C2=C(C1)OC(N)=C(c1nc(-c3ccccc3)cs1)C2c1ccc(Br)cc1 (stereo unspecified) | 100 µg/mL | > 150 µg/mL |  |  | 55.7 µg/mL | > 150 µg/mL | 33.2 µg/mL | 126 µg/mL | 67.4 µg/mL | > 150 µg/mL | 38.7 µg/mL | > 150 µg/mL | 86 µg/mL | > 150 µg/mL | 71.2 µg/mL | > 150 µg/mL | 97.1 µg/mL | > 150 µg/mL | > 150 µg/mL | 44.6 µg/mL |
| COc1cc2c(cc1OCCCCN1CCN(C(=S)SCCC(C#N)(c3ccccc3)c3ccccc3)CC1)N=C[C@@H]1CCCN1C2=O | 1.28 µM | 2.8 µM | 1.42 | 8.84 |  |  | 1.07 µM | 14.3 µM | 1.13 µM | > 100 µM | 1.11 µM | 2.82 µM |  |  | 1.11 µM | 2.66 µM | 1.97 µM | 4.17 µM | > 100 µM | 0.578 µM |
| Cc1ccc(C)c(N2C(=O)C(=O)C(c3nc4ccccc4s3)/C(=N/NC(=O)NN)C2=O)c1 (stereo unspecified) |  | > 100 µM |  |  |  | > 100 µM |  | > 100 µM |  | > 100 µM |  | > 100 µM |  | > 100 µM |  | > 100 µM |  | > 100 µM |  |  |
| Cc1nc(C(=O)O)c2ccccc2n1 |  | > 100 µM |  |  |  | > 100 µM |  | > 100 µM |  | > 100 µM |  | > 100 µM |  | > 100 µM |  | > 100 µM |  | > 100 µM |  |  |
| CC(C)(Br)C(=O)C(Br)Br | 4.85 µM | 26.9 µM and 8.99 µM |  | 9.13 | 5.33 µM | 9.91 µM and 9.61 µM | 4 µM | 3.16 µM and 8.12 µM | 6.16 µM | 24 µM and 11.8 µM | 5.55 µM | 25 µM and 9.92 µM | 5.12 µM | 3.59 µM and 10.4 µM | 9.65 µM | > 44.7 µM and 33.3 µM | 5.21 µM | 22.4 µM and 9.43 µM |  |  |
| C=CNC(=O)NC(=O)CSc1nnc(-c2ccccc2NC(=O)C(F)(F)F)c(=O)[nH]1 |  | > 100 µM |  |  |  | > 100 µM |  | 86.6 µM |  | > 100 µM |  | 2.06 µM |  | > 100 µM |  | > 100 µM |  |  |  |  |
| COCOCC/C=C/C=O |  | > 100 µM |  |  |  | > 100 µM |  | > 100 µM |  | > 100 µM |  | > 100 µM |  | > 100 µM |  | > 100 µM |  | > 100 µM |  |  |
| NC(=O)NNC(=O)NC12CC3CC(CC(C3)C1)C2 |  | > 100 µM |  |  |  | > 100 µM |  | > 100 µM |  | > 100 µM |  | > 100 µM |  | > 100 µM |  | > 100 µM |  | > 100 µM |  |  |
| N#CC(c1ccccn1)c1nc2ccccc2[nH]1 (stereo unspecified) |  | > 100 µM |  |  |  | > 100 µM |  |  |  | > 100 µM |  | > 100 µM |  | > 100 µM |  | > 100 µM |  | > 100 µM |  |  |
| OC(C#Cc1ccccc1)(c1ccccc1)c1ccccc1 |  | > 100 µM |  | > 100 |  | > 100 µM |  |  |  | 78.4 µM |  | 37.7 µM |  | > 100 µM |  | 83.4 µM |  | > 100 µM | 78.1 µM |  |
| Cc1ccc(S(=O)(=O)N/N=C(/CC(=O)c2c(C)n([O-])c3ccccc3[n+]2=O)C(=O)Nc2ccccc2C)cc1 |  | > 100 µM |  |  |  | > 100 µM |  | > 100 µM |  | > 100 µM |  |  |  | > 100 µM |  | > 100 µM |  | > 100 µM |  |  |
| N#Cc1ccc(C=NC23CC4CC(CC(C4)C2)C3)cc1 |  | > 100 µM |  |  |  | > 100 µM |  | > 100 µM |  | > 100 µM |  |  |  | > 100 µM |  | > 100 µM |  | > 100 µM |  |  |
| O=C(CC1SC(=Nc2ccccc2Cl)NC1=O)Nc1ccc(Cl)cc1Cl (stereo unspecified) |  | > 100 µM |  |  |  | > 100 µM |  | > 100 µM |  | > 100 µM |  | > 100 µM |  | > 100 µM |  | > 100 µM |  | > 100 µM |  |  |
| N#CC(C#N)c1ccc(C(=O)N2CCC[C@H]2CO)cc1 |  | > 100 µM |  |  |  |  |  | > 100 µM |  | > 100 µM |  | > 100 µM |  | > 100 µM |  | > 100 µM |  | > 100 µM |  |  |
| O=S(=O)(/C=C/C(=C/c1ccccc1)S(=O)(=O)c1ccccc1)c1ccccc1 |  | 3.15 µM |  |  |  | 3.13 µM |  |  |  | 3.28 µM |  |  |  |  |  | 3.27 µM |  | 2.89 µM |  |  |
| O=c1[nH]cc(F)c(=O)n1C1OC(CO)C(O)C1O (stereo unspecified) |  | > 100 µM |  |  |  |  |  | > 100 µM |  | > 100 µM |  | > 100 µM |  | > 100 µM |  | > 100 µM |  | > 100 µM |  |  |
| O=S(=O)(c1cccc(N=C=S)c1)c1cccc(N=C=S)c1 |  | 29.5 µM |  |  |  | 32 µM |  |  |  |  |  | 36.3 µM |  |  |  | 35.4 µM |  | 38.5 µM |  |  |
| NC(=O)c1csc(C2OC(COP(=O)(O)CP(=O)(O)OCC3OC(n4cnc5c(N)ncnc54)C(O)C3O)C(O)C2O)n1 (stereo unspecified) |  | > 100 µM |  |  |  |  |  | > 100 µM |  | > 100 µM |  | > 100 µM |  | > 100 µM |  | > 100 µM |  | > 100 µM |  |  |
| CCCCCO/N=C\c1c2c(O)c3c(O)c(C)c4c(c3c1O)C(=O)C(C)(O/C=C\C(OC)C(C)C(OC(C)=O)C(C)C(O)C(C)C(O)C(C)/C=C\C=C(\C)C(=O)N2)O4 (stereo unspecified) | 1.73 µM | 3.25 µM |  |  | 1.65 µM | 3.01 µM |  |  |  |  | 1.5 µM | 2.82 µM | 1.68 µM | 3.04 µM | 1.84 µM | 3.54 µM | 2.3 µM | 6.19 µM | 5.33 µM | 2.15 µM |
| CCCCCCCCCCCCC(Br)C(=O)NCC(N)=O (stereo unspecified) |  | 20.9 µM |  |  |  | 3.72 µM |  | 18.9 µM |  | 36 µM |  | 18.4 µM |  | 52.9 µM |  | 24.6 µM |  | 24.7 µM |  |  |
| CC(C)=CC(=O)N(C)C1C2CN3CCC(O2)C13 (stereo unspecified) |  | > 100 µM |  |  |  | > 100 µM |  |  |  | > 100 µM |  | > 100 µM |  | > 100 µM |  | > 100 µM |  | > 100 µM |  |  |
| COc1ccc(-c2cc(C(=O)Nc3ccc(C)c(C)c3)nc(NC#N)n2)cc1 |  | > 100 µM |  |  |  | > 100 µM |  |  |  | > 100 µM |  | > 100 µM |  | > 100 µM |  | > 100 µM |  | > 100 µM |  |  |
| O=C(Nc1cccc(-n2cc(-c3ccncc3)c(-c3cc(O)cc(Cl)c3)n2)c1)c1cc(C(F)(F)F)cc(C(F)(F)F)c1 | 3.12 µM | 21.1 µM | 4.65 | 46.6 | 3.23 µM | > 100 µM |  |  | 2.5 µM | 37.7 µM | 2.61 µM | 8.67 µM | 4.48 µM | > 100 µM | 3.23 µM | 24.4 µM | 4.23 µM | 51.2 µM | 94.5 µM | 2.99 µM |
| COCCNC(=O)C1C(=O)C(=O)N(CCOC)C1=O (stereo unspecified) |  | > 100 µM |  |  |  | > 100 µM |  | > 100 µM |  | > 100 µM |  | > 100 µM |  | > 100 µM |  | > 100 µM |  | > 100 µM |  |  |
| O=C(O)/C=C/c1nc2ccccc2c(=O)o1 |  | > 100 µM |  |  |  | > 100 µM |  | > 100 µM |  | > 100 µM |  | > 100 µM |  | > 100 µM |  | > 100 µM |  |  |  |  |
| CC1OC(OC2C(O)CC(OC3C(O)CC(OC4CCC5(C)C(CCC6C5CC(O)C5(C)C(C7=CC(=O)OC7)CCC65O)C4)OC3C)OC2C)CC(O)C1O (stereo unspecified) | 0.041 µM | 0.162 µM | 0.0309 | 0.101 | 0.0331 µM | 0.115 µM |  |  | 0.0417 µM | 0.154 µM | 0.0371 µM | 0.129 µM | 0.0423 µM | 0.165 µM | 0.0514 µM | 0.165 µM | 0.126 µM | 0.256 µM | 0.292 µM | 0.0538 µM |
| Cc1cc(C)nc(NS(=O)(=O)c2ccc(Nc3c4ccccc4nc4c(C(=O)Nc5ccc(S(=O)(=O)N=C(N)N)cc5)cccc34)cc2)n1 |  | > 100 µM |  |  |  |  |  | > 100 µM |  | > 100 µM |  | > 100 µM |  | > 100 µM |  | > 100 µM |  | > 100 µM |  |  |

— PubChem BioAssay (NCI)
